{"source": "patent US4444778A", "about": "“Method and composition for treating atherosclerosis” (priority 1982, dated 1984)", "key": {"[1]": {"test_system": "aortic smooth muscle cell proliferation after vascular injury", "assay": "Specific activity of aortic smooth muscle cell DNA after balloon catheter vascular injury (Example 4, Table IV)", "type": "in vivo, rat", "parameters": "Specific Activity for smooth muscle cell DNA, repeat test: concentration or dose not given beside the values", "conditions": "for inhibition of injury-induced smooth muscle cell proliferation: after experimental vascular injury, similar = as with methiothepin 10 mg/kg i.p.; for dose dependent Specific Activity, methiothepin: vehicle = 100; for Specific Activity for smooth muscle cell DNA, repeat test: untreated 100, vehicle 92, standard error (%) in own column", "method": "Rat aortas are denuded of endothelium by passing a catheter with an inflated balloon at its tip down the length of the blood vessel. In animal models, this type of vascular injury has been shown by Goldberg, et al (Vascular Smooth Muscle Cell Kinetics: A New Assay For Studying Patterns of Cellular Proliferation In Vivo, Science, 205, 920-922, 1979), to stimulate formation of vascular lesions resembling those of human atherosclerosis 48 hours after injury. The rats are injected intravenously with ^3 H-thymidine, which is incorporated into the DNA of proliferating smooth muscle cells. After one hour, the specific activity of aortic smooth muscle cell DNA is determined and used as an index of smooth muscle cell proliferation in the injured vessel wall."}, "[2]": {"test_system": "Smooth muscle cells", "assay": "3H-thymidine incorporation into smooth muscle cells (Example 3, Table III)", "type": "cell-based", "conditions": "for CPM/Well (3H-thymidine incorporation): about 36 h, mean ± SEM, n = 4; for % Increase (3H-thymidine incorporation): versus control; for effect on 3H-thymidine incorporation / response to serotonin: cyproheptadine 10^-7 M, similar = as with cyproheptadine", "method": "In this experiment, stimulation of ^3 H-thymidine incorporation is used as an index of the ability of a compound to promote smooth muscle cell proliferation. Smooth muscle cells are seeded in 96 well Linbro racks (5 mm diameter/well) and allowed to grow for 72 hours. […] After approximately 36 hours, the cells are washed with saline, fixed with 10% TCA, washed with water, lysed with 1% SDS, and the lysate counted for ^3 H. This procedure allows the investigator to assess the amount of ^3 H-thymidine taken up by smooth muscle cells and incorporated into DNA."}, "[3]": {"test_system": "Smooth muscle cells (BASMC)", "assay": "Smooth muscle cell number, 96 h incubation with serotonin, PDGF or serotonin receptor blocker (Example 2, Table II)", "type": "cell-based, bovine", "conditions": "for Cell Number/Plate / effect on serotonin-induced increase in smooth muscle cell number: 2.5% platelet-poor plasma, 96 h; for Cell Number/Plate: mean ± SEM, n = 6; for effect on serotonin-induced increase in smooth muscle cell number: similar = as with cyproheptadine", "method": "Smooth muscle cells are grown from explants of bovine aortic media as described by Coughlin, et al (Platelet-Dependent Stimulation of Prostacyclin Synthesis by Platelet Derived Growth Factor, Nature, 288, pp. 600-602, 1980). Cells are seeded at 10^5 cells per 35 mm tissue culture well in Dulbecco's Modified Eagle Medium containing 10% calf serum and allowed to grow for 24 hours. The serum-containing medium is then removed and the cells are allowed to become quiescent in Medium 199 for 24 hours. The quiescent cultures are then incubated for 72 hours in Medium 199, with or without the mitogen to be tested. After the 72-hour incubation period, the cells are harvested for cell-number determination by Coulter Counter.\nSmooth muscle cells are seeded and made quiescent as described in Example 1. Cultures are then treated with serotonin, PDGF or cyproheptadine, a serotonin receptor blocker. The cultures are then incubated for 96 hours in Medium 199 containing 2.5% platelet-poor plasma and the treatment to be tested."}, "[4]": {"test_system": "Smooth muscle cells (explants of bovine aortic media)", "assay": "Smooth muscle cell number, 72 h incubation with mitogen (Example 1, Table I)", "type": "cell-based", "conditions": "for Cell Number/Plate: 72 h, mean ± SEM, n = 6; for smooth muscle proliferation in cell culture: with and without 2% human platelet-poor plasma", "method": "After the 72-hour incubation period, the cells are harvested for cell-number determination by Coulter Counter."}, "[5]": {"test_system": "Smooth muscle cells (explants of bovine aortic media)", "conditions": "shown by others; cited from earlier work"}, "[6]": {"test_system": "vascular lesions of the aorta after de-endothelialization", "assay": "Lesion area after aortic de-endothelialization (Example 5, Table V)", "type": "in vivo, rat (male Sprague-Dawley)", "conditions": "25 mg/kg by gavage", "text": "The use of serotonin antagonists in preventing or impeding arteriosclerotic lesion is indicated in vivo essentially in accordance with the de-endothelialization procedure of Tiell, et al (Influence of the Pituitary on Arterial Intima Proliferation in the Rat, Circulation Research, Vol. 42, No. 5, […], May 1978). Male Sprague-Dawley rats weighing 300-360 grams are fed a constant formula rodent lab chow and water ad libitum for two weeks prior to the start of the test. For two days before de-endothelialization and for the following 14 days until sacrifice, the animals receive either a placebo or 1 to 200 milligrams per kilogram per day of test compound. On the day of de-endothelialization, the drug is administered intravenously at one-tenth the oral dosage. De-endothelialization is carried out in the aortas of the anesthetized animals by balloon catheterization. The animals are weighed daily from the time of dosing and their behavior is recorded 3 to 4 hours following administration of the test compound. Fourteen days after catheterization, whole body perfusion fixation is carried out at 37° C. with 3% buffered glutaraldehyde in 0.15 M sodium cacodylate at pH 7.4 under 90-100 millimeters hydrostatic pressure. The aorta is removed, cut into 10 equal segments, and following two additional hours in the buffered glutaraldehyde, is treated with 1% osmium tetroxide, dehydrated, infiltrated with Squer's resin and cured. The segments are stained with Stevenal's blue and basic fuchsin, and the lesion areas is determined with a zeiss standard microscope and Videoplan computerized image analyzer. Please see examples for results.\nMale Sprague-Dawley rats weighing 300-360 grams are individually ear tagged, housed and allowed to acclimate for two weeks prior to the start of the test. A constant formula rodent lab chow from Ralston Purina and water are available to the animals ad libitum.\nFor two days prior to de-endothelialization and for 14 days after, pizotyline at a dose of 25 milligrams per kilogram and placebo are administered by gavage in physiological saline to nine drug animals and 19 control animals. All animals are dosed between 8:00 and 10:00 A.M. daily. […] The animals are weighed daily at the time of dosing and behavior for each animal is recorded three to four hours after dosing. […]\nOn the day of de-endothelialization, the animals are anesthetized by ether inhalation and catheterization is carried out by the following procedure. […] The catheter balloon tip is advanced cephaled to the aortic arch region as determined through external catheter demarcations and inflated to a pre-established maximum diameter with approximately 900 mm Hg air pressure. […]"}}, "note": "“Also recorded” adds a separate entry of the source."}
{"compound": "CSc1ccc2c(c1)C(N1CCN(C)CC1)Cc1ccccc1S2", "note": "(centres unmarked) [Methiothepin]", "values": [{"measurement": "inhibition of injury-induced smooth muscle cell proliferation", "setting": "[1]; b.i.d.", "value": "marked inhibition; also recorded: remarkably effective"}, {"measurement": "dose dependent Specific Activity, methiothepin", "setting": "[1]; methiothepin 0.3 mg/kg", "value": 51}, {"measurement": "dose dependent Specific Activity, methiothepin", "setting": "[1]; methiothepin 1.0 mg/kg", "value": 24}, {"measurement": "dose dependent Specific Activity, methiothepin", "setting": "[1]; methiothepin 3.0 mg/kg", "value": 23}, {"measurement": "Specific Activity of aortic smooth muscle cell DNA", "setting": "[1]; methiothepin 10 mg/kg i.p., b.i.d., control 91.6 ± 13.7, mean ± standard error (N = 6)", "value": "18.1 ± 5.3", "unit": "CPM/ugDNA"}, {"measurement": "dose dependent Specific Activity, methiothepin", "setting": "[1]; methiothepin 10.0 mg/kg", "value": 20}, {"measurement": "Specific Activity for smooth muscle cell DNA, repeat test", "setting": "[1]", "value": "23 % of control"}]}
{"compound": "PDGF", "values": [{"measurement": "CPM/Well (3H-thymidine incorporation)", "setting": "[2]; PDGF 1 ng/ml", "value": "454.7 ± 28.3 CPM/Well (×10^-3)"}, {"measurement": "% Increase (3H-thymidine incorporation)", "setting": "[2]; PDGF 1 ng/ml", "value": 405, "unit": "%"}, {"measurement": "effect on 3H-thymidine incorporation / response to serotonin", "setting": "[2]; PDGF 1 ng/ml", "value": "increase thymidine incorporation"}, {"measurement": "Cell Number/Plate", "setting": "[3]; PDGF 0.5 ng/ml, alone or with serotonin / cyproheptadine as in label", "value": "8.11 ± 0.23 ×10^-5"}, {"measurement": "% Maximum", "setting": "[3]; PDGF 0.5 ng/ml, alone or with serotonin / cyproheptadine as in label, relative to 10% Fetal Calf Serum", "value": 39, "unit": "%"}, {"measurement": "Cell Number/Plate", "setting": "[3]; PDGF 4.0 ng/ml, alone or with serotonin / cyproheptadine as in label", "value": "10.66 ± 0.16 ×10^-5"}, {"measurement": "% Maximum", "setting": "[3]; PDGF 4.0 ng/ml, alone or with serotonin / cyproheptadine as in label, relative to 10% Fetal Calf Serum", "value": 72, "unit": "%"}, {"measurement": "Cell Number/Plate", "setting": "[4]; No Plasma, PDGF 8 ng/ml", "value": "9.65 ± 0.29 ×10^-5"}, {"measurement": "Cell Number/Plate", "setting": "[4]; Plasma (2% human platelet-poor plasma), PDGF 8 ng/ml", "value": "14.24 ± 0.04 ×10^-5"}, {"measurement": "smooth muscle proliferation in cell culture", "setting": "[4]", "value": "active"}, {"measurement": "mitogen for smooth muscle cells", "setting": "[5]", "value": "mitogen for smooth muscle cells"}]}
{"compound": "CN1CCC(=C2c3ccccc3C=Cc3ccccc32)CC1", "note": "[Cyproheptadine]", "values": [{"measurement": "effect on 3H-thymidine incorporation / response to serotonin", "setting": "[2]; PDGF 1 ng/ml", "value": "attenuates this response to serotonin"}, {"measurement": "effect on serotonin-induced increase in smooth muscle cell number", "setting": "[3]", "value": "attenuated"}]}
{"compound": "CN1CCC(=C2c3ccccc3CCc3sccc32)CC1", "note": "[Pizotyline, 4-[1-methyl-4-piperidylidene]-9,10-dihydro-4H-benzo[4,5]cyclohepta[1,2-b]thiophene]", "values": [{"measurement": "inhibition of injury-induced smooth muscle cell proliferation", "setting": "[1]; b.i.d.", "value": "remarkably effective"}, {"measurement": "Mean Lesion Area, Abdominal", "setting": "[6]; abdominal, 2 days before and 14 days after, normalized to 1,000 μm length, control 60,310.3", "value": "27,135.4 Square Microns"}, {"measurement": "reduction of lesion formation, abdominal segments", "setting": "[6]; abdominal, compared to control", "value": 55, "unit": "%"}, {"measurement": "Mean Lesion Area, Thoracic", "setting": "[6]; thoracic, 2 days before and 14 days after, normalized to 1,000 μm length, control 50,283.1", "value": "11,834.8 Square Microns"}, {"measurement": "mean reduction of lesion formation, thoracic segments", "setting": "[6]; thoracic, compared to control lesion areas", "value": 77, "unit": "%"}]}
{"compound": "NCCc1c[nH]c2ccc(O)cc12", "note": "[Serotonin]", "values": [{"measurement": "effect on 3H-thymidine incorporation / response to serotonin", "setting": "[2]; PDGF 1 ng/ml", "value": "stimulates smooth muscle cell proliferation"}, {"measurement": "CPM/Well (3H-thymidine incorporation)", "setting": "[2]; serotonin 10^-6 M", "value": "306.4 ± 3.1 CPM/Well (×10^-3)"}, {"measurement": "% Increase (3H-thymidine incorporation)", "setting": "[2]; serotonin 10^-6 M", "value": 240, "unit": "%"}, {"measurement": "CPM/Well (3H-thymidine incorporation)", "setting": "[2]; serotonin 10^-7 M", "value": "139.8 ± 11.9 CPM/Well (×10^-3)"}, {"measurement": "% Increase (3H-thymidine incorporation)", "setting": "[2]; serotonin 10^-7 M", "value": 55, "unit": "%"}, {"measurement": "effect on serotonin-induced increase in smooth muscle cell number", "setting": "[3]", "value": "increases the number of smooth muscle cells"}, {"measurement": "Cell Number/Plate", "setting": "[3]; serotonin 10^-5 M", "value": "7.68 ± 0.12 ×10^-5"}, {"measurement": "% Maximum", "setting": "[3]; serotonin 10^-5 M, relative to 10% Fetal Calf Serum = 100", "value": 33, "unit": "%"}, {"measurement": "Cell Number/Plate", "setting": "[4]; No Plasma, serotonin 10^-5 M", "value": "8.34 ± 0.43 ×10^-5"}, {"measurement": "Cell Number/Plate", "setting": "[4]; Plasma (2% human platelet-poor plasma), serotonin 10^-5 M", "value": "12.19 ± 0.13 ×10^-5"}, {"measurement": "smooth muscle proliferation in cell culture", "setting": "[4]", "value": "more smooth muscle cells are present; also recorded: potent promoter of smooth muscle proliferation"}, {"measurement": "inhibition of injury-induced smooth muscle cell proliferation", "setting": "[1]; b.i.d.", "value": "important in mediating smooth muscle cell proliferation after vascular injury"}]}
{"compound": "COC(=O)[C@H]1[C@H]2C[C@@H]3c4[nH]c5cc(OC)ccc5c4CCN3C[C@H]2C[C@@H](OC(=O)c2cc(OC)c(OC)c(OC)c2)[C@@H]1OC", "note": "[Reserpine]", "values": [{"measurement": "Specific Activity for smooth muscle cell DNA, repeat test", "setting": "[1]", "value": "68 % of control"}]}
